The values that follow come from ChEMBL document CHEMBL4251620, “Biological evaluation of indolizine-chalcone hybrids as new anticancer agents” (Eur J Med Chem, 2018).

As a reminder, the pIC50 is the negative decadic logarithm of the IC50, by convention in mol/L.

pIC50: −log10 of the molar value. The source made the active and inactive calls. The rule behind the calls is not given here.

For assay [1], the system named is U-937. Description: Cytotoxicity activity against human U937 cells assessed as reduction in cell viability after 48 hrs by CCK-8 assay. The format is functional, cell-based. Particulars: U-937, 48 h. (Tetrazolium dyes change colour on reduction, which living cells bring about.)
For assay [2], the system named is U-937. Put plainly: Cytotoxicity activity against human U937 cells assessed as reduction in cell viability at 1 uM after 48 hrs by CCK-8 assay. The format is functional, cell-based.
Assay [3] concerns U-937. Description: Cytotoxicity activity against human U937 cells assessed as cell viability at 1 uM after 48 hrs by CCK-8 assay. The format is functional. Conditions: U-937, 48 h, read-out: Activity.
Assay [4] deals with U-937. Description: Induction of apoptosis in human U937 cells assessed as early apoptotic cells at 3 uM after 48 hrs by muse Annexin V/dead cell reagent staining-based flow cytometric analysis (reference value: 1.87%). It is filed as functional. (A flow cytometer gives signals particle by particle.)
In assay [5] the test system is U-937. Put plainly: Induction of apoptosis in human U937 cells assessed as viable cells at 10 uM after 48 hrs by muse Annexin V/dead cell reagent staining-based flow cytometric analysis (reference value: 97.07%). It is filed as functional. Particulars: U-937, 48 h, read-out: Activity.
For assay [6], the system named is U-937. Description: Induction of apoptosis in human U937 cells assessed as early apoptotic cells at 10 uM after 48 hrs by muse Annexin V/dead cell reagent staining-based flow cytometric analysis (reference value: 1.87%). It is filed as functional.
Assay [7] concerns U-937. Put plainly: Induction of apoptosis in human U937 cells assessed as late apoptotic cells at 10 uM after 48 hrs by muse Annexin V/dead cell reagent staining-based flow cytometric analysis (reference value: 1%). It is filed as functional.
Assay [8] has as its system U-937. Put plainly: Induction of apoptosis in human U937 cells assessed as late apoptotic cells at 3 uM after 48 hrs by muse Annexin V/dead cell reagent staining-based flow cytometric analysis (reference value: 1%). It is filed as functional.
The test system of assay [9] is U-937. Description: Induction of apoptosis in human U937 cells assessed as increase in caspase-3/7 activity at 3 uM after 6 hrs. The format is functional, cell-based.
Assay [10] deals with U-937. Description: Induction of apoptosis in human U937 cells assessed as viable cells at 3 uM after 48 hrs by muse Annexin V/dead cell reagent staining-based flow cytometric analysis (reference value: 97.07%). Conditions: U-937, 48 h, read-out: Activity. The format is functional.
Assay [11] has as its system U-937. Put plainly: Induction of apoptosis in human U937 cells assessed as necrotic cells at 10 uM after 48 hrs by muse Annexin V/dead cell reagent staining-based flow cytometric analysis (reference value: 0.06%). The format is functional.
In assay [12] the test system is U-937. Put plainly: Induction of apoptosis in human U937 cells assessed as necrotic cells at 3 uM after 48 hrs by muse Annexin V/dead cell reagent staining-based flow cytometric analysis (reference value: 0.06%). It is filed as functional.
In assay [13] the test system is Raji. Put plainly: Induction of apoptosis in human Raji cells at 10 uM after 48 hrs by muse Annexin V/dead cell reagent staining-based flow cytometric analysis (reference value: 9.58%). The format is functional.
Assay [14] deals with JeKo-1. Description: Cytotoxicity activity against human JeKo1 cells assessed as reduction in cell viability after 48 hrs by CCK-8 assay. It is filed as functional, cell-based. Particulars: JeKo-1, 48 h.
The test system of assay [15] is JeKo-1. Description: Induction of apoptosis in human JeKo1 cells at 10 uM after 48 hrs by muse Annexin V/dead cell reagent staining-based flow cytometric analysis (reference value: 5.21%). It is filed as functional.
In assay [16] the test system is U-937. Put plainly: Induction of apoptosis in human U937 cells at 10 uM after 48 hrs by muse Annexin V/dead cell reagent staining-based flow cytometric analysis (reference value: 2.95%). It is filed as functional.
Assay [17] has as its system Raji. Put plainly: Cytotoxicity against human Raji cells assessed as reduction in cell viability after 48 hrs by CCK-8 assay. The format is functional, cell-based.

As to `COc1cc(/C=C/C(=O)c2cc3cccn3c(C(=O)c3ccccc3)c2C)cc(OC)c1OC`, in the assay with U-937 [1], the pIC50 is 5.23.

`COc1cc(/C=C2\CCc3c(cc4cccn4c3C(=O)c3ccccc3)C2=O)cc(OC)c1`: in the assay with U-937 [1], the pIC50 was 5.02.

With `Cc1c(C(=O)/C=C/c2ccc(Cl)cc2)cc2cccn2c1C(=O)c1ccccc1`, in the assay with U-937 [2], the result was Active. In the assay with U-937 [3], the viability at 1 µM was above 80%.

As for `COc1ccc(/C=C/C(=O)c2cc3cccn3c(C(=O)c3ccccc3)c2C)cc1OC`, the viability at 1 µM with U-937 [3] is above 80%.

For the compound `Cc1c(C(=O)/C=C/c2cccc(F)c2)cc2cccn2c1C(=O)c1ccccc1`, in the assay on U-937 [2], the result was Active. For the same compound, the viability at 1 µM in the assay on U-937 [3] is above 80%.

For the compound `COc1ccc(/C=C/C(=O)c2cc3cccn3c(C(=O)c3ccccc3)c2C)cc1`, in the assay on U-937 [3], the viability at 1 µM was above 80%.

Regarding `COc1cc(/C=C/C(=O)c2cc3cccn3c(C(=O)c3ccco3)c2C)cc(OC)c1`, the pIC50 in the assay with U-937 [1] was 5.12.

Take `COc1cccc(/C=C/C(=O)c2cc3cccn3c(C(=O)c3ccccc3)c2C)c1`: the viability at 1 µM in the assay with U-937 [3] is above 80%.

With `Cc1c(C(=O)/C=C/c2ccc([N+](=O)[O-])cc2)cc2cccn2c1C(=O)c1ccccc1`, the Activity in the assay with U-937 [4] was found to be 24.87%; in the assay with U-937 [6], 16.34%; with U-937 [7], 68.63%; with U-937 [8], 47.12%; in the assay on U-937 [11], 1.31%; in the assay with U-937 [12] it was 1.57%. Moreover, the viability at 10 µM in the assay on U-937 [5] amounted to 13.7%. For the same compound, the pIC50 in the assay on U-937 [1] was 5.86. The result in the assay on U-937 [9] was Active. The viability at 1 µM in the assay on U-937 [3] was below 80%. Also, in the assay with U-937 [10], the viability at 3 µM came out at 26.4%.

Regarding `Cc1c(C(=O)/C=C/c2ccccc2)cc2cccn2c1C(=O)c1ccccc1`, the viability at 1 µM with U-937 [3] is above 80%.

Take `Cc1c(C(=O)/C=C/c2ccc(Br)s2)cc2cccn2c1C(=O)c1ccccc1`: the viability at 1 µM with U-937 [3] was above 80%.

Take `COc1cccc2c1C(=O)c1c(O)c3c(c(O)c1C2=O)C[C@@](O)(C(=O)CO)C[C@@H]3O[C@H]1C[C@H](N)[C@H](O)[C@H](C)O1` [DOXORUBICIN]: the Activity in the assay on Raji [13] was 95.35%; with JeKo-1 [15] it was 87.92%; with U-937 [16] it was 74.66%. For the same compound, the pIC50 in the assay with U-937 [1] was 6.55; in the assay on JeKo-1 [14], 6.74; in the assay with Raji [17], 6.77.

Turning to `Cc1c(C(=O)/C=C/c2ccc(Br)o2)cc2cccn2c1C(=O)c1ccccc1`, the viability at 1 µM in the assay with U-937 [3] was above 80%.

On to `Cc1c(C(=O)/C=C/c2ccc(F)cc2)cc2cccn2c1C(=O)c1ccccc1`, for which the outcome with U-937 [2] was Active. Moreover, the viability at 1 µM in the assay on U-937 [3] was above 80%.

For the compound `Cc1c(C(=O)/C=C/c2ccncc2)cc2cccn2c1C(=O)c1ccccc1`, the Activity amounted to 30.03% in the assay with U-937 [4]; 6.21% with U-937 [6]; 83.05% in the assay on U-937 [7]; 47.68% in the assay with U-937 [8]; 0% with U-937 [11]; 0.93% in the assay on U-937 [12]. For the same compound, in the assay on U-937 [5], the viability at 10 µM came to 10.7%. Further, the pIC50 in the assay on U-937 [1] was 5.86. Also, the outcome with U-937 [9] was Active. In addition, in the assay with U-937 [3], the viability at 1 µM was below 80%. Moreover, the viability at 3 µM in the assay on U-937 [10] came to 21.4%.

As for `Cc1ccc(/C=C/C(=O)c2cc3cccn3c(C(=O)c3ccccc3)c2C)cc1`, the viability at 1 µM with U-937 [3] is above 80%.

Turning to `Cc1c(C(=O)/C=C/c2ccc(Br)cc2)cc2cccn2c1C(=O)c1ccccc1`, the Activity with U-937 [4] is reported as 31.36%; in the assay on U-937 [6], 14.54%; with U-937 [7], 76.56%; with U-937 [8], 42.16%; in the assay on U-937 [11] it was 0.59%; in the assay on U-937 [12] it was 0.77%. Also, the viability at 10 µM in the assay on U-937 [5] was 8.31%. In addition, the pIC50 in the assay on U-937 [1] is 5.86. Moreover, the outcome in the assay on U-937 [9] was Active. In the assay with U-937 [3], the viability at 1 µM is below 80%. Also, in the assay on U-937 [10], the viability at 3 µM stood at 25.7%.

For the compound `COc1cc(/C=C/C(=O)c2cc3cccn3c(C(=O)c3ccccc3)c2C)cc(OC)c1`, the Activity in the assay with U-937 [4] stood at 39.59%; in the assay on Raji [13], 33.78%; in the assay on U-937 [6], 8.22%; in the assay with U-937 [7] it was 88.41%; with JeKo-1 [15], 46.27%; in the assay with U-937 [16], 51.26%. Also, the figures for the Activity in the assay with U-937 [8], with U-937 [11] and with U-937 [12] were 45.57%, 0% and 0.62%, respectively. Besides, in the assay with U-937 [5], the viability at 10 µM came to 3.36%. In addition, the pIC50 was 5.95 in the assay on U-937 [1], 5.89 in the assay with JeKo-1 [14] and 5.70 in the assay on Raji [17]. In the assay on U-937 [9], the outcome was Active. The viability at 1 µM in the assay on U-937 [3] is below 80%. Besides, the viability at 3 µM in the assay on U-937 [10] stood at 14.2%.

On to `Cc1c(C(=O)/C=C/c2ccc3c(c2)OCO3)cc2cccn2c1C(=O)c1ccccc1`, for which the viability at 1 µM in the assay on U-937 [3] is above 80%.

As for `Cc1c(C(=O)/C=C/c2cccc(Cl)c2)cc2cccn2c1C(=O)c1ccccc1`, the Activity is listed as 29.36% in the assay with U-937 [4]; 5.94% in the assay on U-937 [6]; 85.99% with U-937 [7]; 54.29% in the assay on U-937 [8]; 0.24% with U-937 [11]; 0.55% in the assay on U-937 [12]. In the assay on U-937 [5], the viability at 10 µM amounted to 7.84%. For the same compound, in the assay with U-937 [1], the pIC50 is 5.89. In addition, the result in the assay with U-937 [2] and in the assay with U-937 [9] was Active. The viability at 1 µM in the assay with U-937 [3] is below 80%. Moreover, in the assay with U-937 [10], the viability at 3 µM is 15.8%.

For the compound `COc1ccccc1/C=C/C(=O)c1cc2cccn2c(C(=O)c2ccccc2)c1C`, the viability at 1 µM in the assay on U-937 [3] is above 80%.

Turning to `Cc1c(C(=O)/C=C/c2ccc3ccccc3c2)cc2cccn2c1C(=O)c1ccccc1`, in the assay on U-937 [3], the viability at 1 µM is above 80%.

Consider `COc1ccc(C(=O)c2c(C)c(C(=O)/C=C/c3cc(OC)cc(OC)c3)cc3cccn23)cc1`, for which the pIC50 in the assay on U-937 [1] is 5.18.
